The source of these data is US7868135B2, “Compositions of lipopeptide antibiotic derivatives and methods of use thereof” (priority 2003, dated 2011).

Molecules are shown by their SMILES. Starred links: 1 amine or outer side, 2 acyl side, 3 side chain; linkers in the order of their positions; H or OH if unused. Positions of bridges follow the written chain, without caps; N, C: chain ends. Non-standard residues stand in square brackets, D forms with d. Residues, ends and D or L forms follow the SMILES beside them. ξ: configuration not given here. *: point of attachment. X37 = CC(NC(=O)[C@@H](N)CCCCN)C(N[*:1])C(=O)[*:2]; ξAbu(3ξ-NHCOCH2NH2) = CC(NC(=O)CN)C(N)C(=O)O; ξAbu(βξ-NH2) = CC(N[*:3])C(N[*:1])C(=O)[*:2]; Stearoyl = CCCCCCCCCCCCCCCCCC(=O)*; ξAsp(βξ-Me) = CC(C(=O)O)C(N)C(=O)O; Palmitoyl = CCCCCCCCCCCCCCCC(=O)*; X1 = O=C(Cc1ccc(N[*:1])cc1)[*:2]; Myristoyl = CCCCCCCCCCCCCC(=O)*; ξAbu(3ξ-NH2) = CC(N)C(N)C(=O)O; Lauroyl = CCCCCCCCCCCC(=O)*; X19 = CCCCCCCCCCS(=O)(=O)*; Octanoyl = CCCCCCCC(=O)*; Pip = O=C(O)[CH]1CCCCN1; ξD = NC(CC(=O)O)C(=O)O; ξPip = O=C(O)C1CCCCN1; ξV = CC(C)C(N)C(=O)O; ξP = O=C(O)C1CCCN1

The test relates to Staphylococcus aureus (MSSA). To be noted: 24 h. In short, it runs like this:
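Broth microdilution MIC per NCCLS M7-A6 with doubling serial dilutions, in cation-adjusted Mueller-Hinton broth supplemented with 0.625 mM calcium.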
One may read the MIC as the lowest concentration found to suppress growth. Regarding `CCCCCCCCCCS(=O)(=O)NCC(=O)NC(CC(=O)O)C(=O)NC1C(=O)N2CCCCC2C(=O)NC(C(C)C(=O)O)C(=O)NC(CC(=O)O)C(=O)NCC(=O)NC(CC(=O)O)C(=O)NCC(=O)NC(C(C)NC(=O)[C@@H](N)CCCCN)C(=O)NC(C(C)C)C(=O)N2CCCC2C(=O)NC1C` (stereo partly drawn) [Compound 101, CH3—(CH2)9—SO2-Gly-Amphomycin-9-Lys] (X19-G[ξD][ξAbu(βξ-NH2)][ξPip][ξAsp(βξ-Me)][ξD]G[ξD]G[X37][ξV][ξP]; lactam 3-C), the MIC was 32 mg/L.

Turning to `CCCCCCCCCCS(=O)(=O)NCC(=O)NC(CC(=O)O)C(=O)NC1C(=O)N2CCCCC2C(=O)NC(C(C)C(=O)O)C(=O)NC(CC(=O)O)C(=O)NCC(=O)NC(CC(=O)O)C(=O)NCC(=O)NC(C(C)NC(=O)CN)C(=O)NC(C(C)C)C(=O)N2CCCC2C(=O)NC1C` (stereo not drawn) [Compound 102, CH3—(CH2)9—SO2-Gly-Amphomycin-9-Gly] (X19-GD[ξAbu(βξ-NH2)][Pip][ξAsp(βξ-Me)]DGDG[ξAbu(3ξ-NHCOCH2NH2)]VP; lactam 3-C; configuration not given here), the MIC was 8 mg/L.

In the case of `CCCCCCCCCCCC(=O)NCC(=O)NC(CC(=O)O)C(=O)NC1C(=O)N2CCCCC2C(=O)NC(C(C)C(=O)O)C(=O)NC(CC(=O)O)C(=O)NCC(=O)NC(CC(=O)O)C(=O)NCC(=O)NC(C(C)N)C(=O)NC(C(C)C)C(=O)N2CCCC2C(=O)NC1C` (stereo not drawn) [Compound 103, C12-Gly-Amphomycin] (Lauroyl-GD[ξAbu(βξ-NH2)][Pip][ξAsp(βξ-Me)]DGDG[ξAbu(3ξ-NH2)]VP; lactam 3-C; configuration not given here), the MIC lay within 8 to 16 mg/L.

Consider `CCCCCCCC(=O)Nc1ccc(CC(=O)NC(CC(=O)O)C(=O)NC2C(=O)N3CCCCC3C(=O)NC(C(C)C(=O)O)C(=O)NC(CC(=O)O)C(=O)NCC(=O)NC(CC(=O)O)C(=O)NCC(=O)NC(C(C)N)C(=O)NC(C(C)C)C(=O)N3CCCC3C(=O)NC2C)cc1` (stereo not drawn) [Compound 104, C8-(p-Apa)-Amphomycin] (Octanoyl-[X1]D[ξAbu(βξ-NH2)][Pip][ξAsp(βξ-Me)]DGDG[ξAbu(3ξ-NH2)]VP; lactam 3-C; configuration not given here), for which the MIC was determined as 2 mg/L.

As to `CCCCCCCCCCCCCC(=O)NCC(=O)NC(CC(=O)O)C(=O)NC1C(=O)N2CCCCC2C(=O)NC(C(C)C(=O)O)C(=O)NC(CC(=O)O)C(=O)NCC(=O)NC(CC(=O)O)C(=O)NCC(=O)NC(C(C)N)C(=O)NC(C(C)C)C(=O)N2CCCC2C(=O)NC1C` (stereo not drawn) [Compound 105, C14-Gly-Amphomycin] (Myristoyl-GD[ξAbu(βξ-NH2)][Pip][ξAsp(βξ-Me)]DGDG[ξAbu(3ξ-NH2)]VP; lactam 3-C; configuration not given here), the MIC amounted to 0.5 mg/L.

As to `CCCCCCCCCCCCCCCC(=O)NCC(=O)NC(CC(=O)O)C(=O)NC1C(=O)N2CCCCC2C(=O)NC(C(C)C(=O)O)C(=O)NC(CC(=O)O)C(=O)NCC(=O)NC(CC(=O)O)C(=O)NCC(=O)NC(C(C)N)C(=O)NC(C(C)C)C(=O)N2CCCC2C(=O)NC1C` (stereo not drawn) [Compound 106, C16-Gly-Amphomycin] (Palmitoyl-GD[ξAbu(βξ-NH2)][Pip][ξAsp(βξ-Me)]DGDG[ξAbu(3ξ-NH2)]VP; lactam 3-C; configuration not given here), the MIC is 0.5 mg/L.

Regarding `CCCCCCCCCCCCCCCCCC(=O)NCC(=O)NC(CC(=O)O)C(=O)NC1C(=O)N2CCCCC2C(=O)NC(C(C)C(=O)O)C(=O)NC(CC(=O)O)C(=O)NCC(=O)NC(CC(=O)O)C(=O)NCC(=O)NC(C(C)N)C(=O)NC(C(C)C)C(=O)N2CCCC2C(=O)NC1C` (stereo not drawn) [Compound 107, C18-Gly-Amphomycin] (Stearoyl-GD[ξAbu(βξ-NH2)][Pip][ξAsp(βξ-Me)]DGDG[ξAbu(3ξ-NH2)]VP; lactam 3-C; configuration not given here), the MIC came out at 2 mg/L.
